For two compounds, IC50 results are on record in patent publication US5294633A, “Imidazolyl-propenoic acid derivatives” (Bayer Aktiengesellschaft, priority 1991, dated 1994).

Converted amounts (≈) assume the structure as drawn.

The experiment concerns isolated rabbit aorta (contractions induced by angiotensin II). Put plainly: Inhibition of the contraction induced with angiotensin II in isolated rabbit aorta rings. The note with it: Oryctolagus cuniculus; isolated aorta rings of rabbits in vitro; effect at 3rd = submaximal agonist concentration; read-out: IC50 (g/ml) with respect to contractions induced by AII. The method, then: Rabbits of both sexes are anaesthetized by a blow to the neck and bled out, or alternatively anaesthetized with Nembutal (about 60-80 mg/kg i.v.) and sacrificed by opening the thorax. The thorax aorta is taken out, freed from adhering connective tissue, divided into 1. 5 Mm wide ring segments and these are individually transferred under an initial loading of about 3.5 g to 10 ml organ baths containing 95% O2 /5% CO2 -aerated Krebs-Henseleit nutrient solution thermostated at 37° C. and of the following composition: 119 mmol/l NaCl; 2.5 mmol/l CaCl2 ×2H2 O; 1.2 mmol/l KH2 PO4; 10 mmol/l glucose; 4.8 mmol/l KCl; 1.4 mmol/l MgSO4 ×7 H2 O and 25 mmol/l NaHCO3.
The contractions are detected isometrically by Statham UC2 cells by means of a bridge amplifier (ifd Mulheim or DSM Aalen) and digitized and evaluated by means of an A/D converter (System 570, Keithley, Munich). The agonist dose-response curves (DRC) are carried out hourly. With each DRC, 3 or 4 individual concentrations are applied to the baths at 4 min intervals. […]
The height of, in the normal case, the 3rd DRC is used as a reference quantity for the assessment of the test substance to be investigated in further passages, which test substance is applied to the baths in increasing dose in each case at the start of the incubation time in the following DRCs. […]

Consider `CCCCc1nc(Cl)c(/C=C/C(=O)O)n1Cc1ccc(-c2ccccc2-c2nnn[nH]2)cc1` [Example 2, (E)-3-[2-n-Butyl-4-chloro-1-{(2'-(tetrazol-5-yl)biphenyl-4-yl)methyl}-1H-imidazol-5-yl]-2-propenoic acid], for which the IC50 is 0.021 µg/mL (≈ 0.0454 µM).
In the case of `CCCCc1nc(Cl)c(/C=C/C(=O)OCC)n1Cc1ccc(-c2ccccc2-c2nnn[nH]2)cc1` [Example 1, Ethyl (E)-3-[2-n-butyl-4-chloro-1-{(2'-(tetrazol-5-yl)biphenyl-4-yl)methyl}-1H-imidazol-5-yl]-2-propenoate], the IC50 was 0.025 µg/mL (≈ 0.0509 µM).
